Measured values from patent US20250206723A1, “METHODS AND PROCESSES FOR THE PREPARATION OF MCT4 INHIBITORS” (Vettore, LLC, priority 2022, published 2025).
Structures can show the parent of a compound that is named as a salt. Blank lines part the entries; values can stand above or below the molecule they belong to.

Tests used:
[1] = Dog pharmacokinetics, oral powder in capsule; type: in vivo, beagle dogs; conditions: for AUCinf / AUClast: single 3 mg/kg, powder in capsule, mean, 3 mg/kg, in ng·h/mL
Procedure: Groups, Dosing, and Collection. The pharmacokinetics of the free acid and the tris salt of the compound of Formula I administered by oral capsules was assessed in dogs. Three male beagle dogs were administered a single dose of 3 mg/kg free acid on Day 1 of the study, and a single dose of 3 mg/kg tris salt on Day 8 of the study. Plasma was collected pre-dose, and at 0.5, 1, 2, 4, 8, 12 and 24 hours post-dose via puncture of peripheral veins.
(§1) LC MS-MS Analysis. Liquid Chromatography with tandem mass spectrometry was used to determine plasma concentrations of the compound of Formula I free acid and the tris salt in plasma samples collected at prescribed time points. Instrumentation included YMC-Triart C18, S-5 μm (50×2.1 mm) HPLC column, liquid chromatograph Shimadzu LC-30AD with communications bus module CBM-20A and Auto SIL-20AC HT; and a Triple Quad 5500 LC/MS/MS instrument. Tolbutamide was used as an internal standard.

[2] = Rat pharmacokinetics, oral gavage, plasma by LC-MS/MS; type: in vivo, Sprague-Dawley rats
[3] = Dog pharmacokinetics, oral gavage of suspension (0.5% methylcellulose in saline); type: in vivo; conditions: male beagle dogs; for AUC(0-inf) / AUC(0-t): dog, plasma, oral gavage suspension, mean
Procedure: In a follow-up study, the pharmacokinetics of tris salt of the compound of Formula I were investigated via oral gavage of a 0.5% methylcellulose in saline formulation. Two groups of animals were tested. In Group 1, three male beagle dogs were administered a single dose of 3 mg/kg tris salt. In Group 2, three male beagle dogs were administered a single dose of 30 mg/kg tris salt. Plasma was collected pre-dose, and at 0.5, 1, 2, 4, 8, 12 and 24 hours post-dose via puncture of peripheral veins.
as §1

MCT4 = MCT4 (Homo sapiens, UniProt O15427); conditions: affinity of MCT4 for lactate; cited from earlier work
MCT4, sequence (O15427 whole entry): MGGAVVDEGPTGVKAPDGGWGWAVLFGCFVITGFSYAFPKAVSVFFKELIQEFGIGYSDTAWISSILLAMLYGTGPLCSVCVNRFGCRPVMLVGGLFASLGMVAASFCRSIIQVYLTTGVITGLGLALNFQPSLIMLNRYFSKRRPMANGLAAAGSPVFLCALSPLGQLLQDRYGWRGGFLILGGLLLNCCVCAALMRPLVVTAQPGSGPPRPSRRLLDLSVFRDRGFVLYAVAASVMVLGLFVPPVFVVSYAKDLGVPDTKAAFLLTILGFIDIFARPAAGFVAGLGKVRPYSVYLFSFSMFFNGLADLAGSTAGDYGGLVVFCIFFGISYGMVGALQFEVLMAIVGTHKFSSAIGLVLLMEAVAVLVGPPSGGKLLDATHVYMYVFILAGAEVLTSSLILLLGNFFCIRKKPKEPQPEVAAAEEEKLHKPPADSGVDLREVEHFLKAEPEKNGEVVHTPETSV

[4] = rat male, 20 mg/kg free acid, oral gavage, mean
[5] = male beagle dogs, listed as Salt

SMILES: CC(C)(OCc1cc(-c2cccc(OC3CCC3)c2)n(-c2ccccc2N2CCC2)n1)C(=O)O [Free Acid, 2-([1-[2-(azetidin-1-yl)phenyl]-5-(3-cyclobutoxyphenyl)-1H-pyrazol-3-yl]methoxy)-2-methylpropanoic acid]
clinical symptoms ([1]; male beagle dogs, single 3 mg/kg oral capsule): No abnormal clinical symptoms
AUCinf ([1]; male beagle dogs): 1265
AUClast ([1]; male beagle dogs): 1215
AUC—% Extrap_obs ([2]; rat female, 20 mg/kg free acid, oral gavage, mean): 9.9%
AUC—% Extrap_obs ([2]; rat female, 60 mg/kg free acid, oral gavage, mean): 16.7%
AUC—% Extrap_obs ([2]; rat female, 200 mg/kg free acid, oral gavage, mean): 22.1%
AUClast/D [2, 4]: 8332 ng·h/mL
AUC—% Extrap_obs [2, 4]: 0.61%
AUC—% Extrap_obs ([2]; rat male, 60 mg/kg free acid, oral gavage, mean): 0.477%
AUC—% Extrap_obs ([2]; rat male, 200 mg/kg free acid, oral gavage, mean): 0.704%
clinical symptoms ([2]; rats, single oral gavage, all dose groups): No abnormal clinical symptoms

total drug exposure across time (AUClast and AUCInf) compared to the free acid ([1]; dogs, powder in capsule and suspension formulations): higher
AUCinf [1, 5]: 4092
AUClast [1, 5]: 3924
AUC(0-inf) ([3]; 3 mg/kg): 5200 ng·h/mL
AUC(0-t) ([3]; 3 mg/kg): 5080 ng·h/mL
AUC(0-inf) ([3]; 30 mg/kg): 56800 ng·h/mL
AUC(0-t) ([3]; 30 mg/kg): 41300 ng·h/mL
clinical symptoms ([3]; single 3 or 30 mg/kg oral gavage): No abnormal clinical symptoms
AUC—% Extrap_obs ([2]; rat female, 25 mg/kg tris salt, oral gavage, mean): 9%
AUC—% Extrap_obs ([2]; rat female, 75 mg/kg tris salt, oral gavage, mean): 18.5%
AUC—% Extrap_obs ([2]; rat female, 250 mg/kg tris salt, oral gavage, mean): 59.9%
AUC—% Extrap_obs ([2]; rat male, 25 mg/kg tris salt, oral gavage, mean): 1.28%
AUC—% Extrap_obs ([2]; rat male, 75 mg/kg tris salt, oral gavage, mean): 0.473%
AUC—% Extrap_obs ([2]; rat male, 250 mg/kg tris salt, oral gavage, mean): 26.5%
total drug exposure across time (AUClast and AUCInf) versus free acid groups ([2]; rats, male and female): higher
Maximum exposure levels (Cmax) versus free acid groups ([2]; rats, male and female, except females at 20/25 mg/kg): higher
SMILES: CC(C)(OCc1cc(-c2cccc(OC3CCC3)c2)n(-c2ccccc2N2CCC2)n1)C(=O)O [Tris Salt]

SMILES: CC(O)C(=O)O (stereo not shown) [lactate]
Km (MCT4): 28 mM
